These results are taken from the RepoRT retention time repository.

This series in a line: HILIC, HILICON iHILIC-(P) Classic, HILIC, PEEK, 100 × 2.1 mm, 5 µm, 40 °C, 0.2 mL/min, estimated dead time 1.1 min; A: water + 20 mM ammonium carbonate + 5 µM medronic acid; B: 10% water + 90% acetonitrile + 2 mM ammonium carbonate + 0.5 µM medronic acid; gradient (min/%B) 0/95 18/55 19/20 22/20 22.5/95 24/95 26/95. Conditions: stereoisomer not certain.
With `O=C(CO)C(O)C(O)C(O)COP(=O)(O)O` (centres undefined) [Fructose 6-phosphate], the LC retention time is 11.9 min.
As to `O=C(O)CCC(=O)O` [Succinic Acid], the LC retention time was 11.2 min.
As for `NC(CCC(=O)NC(CSSCC(NC(=O)CCC(N)C(=O)O)C(=O)NCC(=O)O)C(=O)NCC(=O)O)C(=O)O` (centres undefined) [GSSG], the figure is 14.7 min; as for `NCCCCC(N)C(=O)O` (centres undefined) [Lysine], 18.3 min.
The result for `O=P(O)(O)OCC1OC(O)(COP(=O)(O)O)C(O)C1O` (centres undefined) [Fructose-1,6-bisphosphate] reads 16.4 min.
The result for `NC(N)=NCCCC(N)C(=O)O` (centres undefined) [Arginine] reads 18.5 min.
As for `O=P(O)(O)OCC1OC(O)C(O)C1O` (centres undefined) [Pentose-phosphate], the LC retention time is 11.6 min.
`O=P(O)(O)OC1OC(CO)C(O)C(O)C1O` (centres undefined) [Glucose-1-phosphate]: the LC retention time is 11.9 min.
In the case of `NC(=O)CC(N)C(=O)O` (centres undefined) [Asparagine], the LC retention time was 9.65 min.
Regarding `O=C(O)CC(O)(CC(=O)O)C(=O)O` [Citric acid], the LC retention time is 15.3 min.
For the compound `O=C(O)CC(C(=O)O)C(O)C(=O)O` (centres undefined) [Isocitric acid], the LC retention time was 15.5 min.
The result for `NC(=O)C1=CN(C2OC(COP(=O)(O)OP(=O)(O)OCC3OC(n4cnc5c(N)ncnc54)C(O)C3O)C(O)C2O)C=CC1` (centres undefined) [NADH] reads 9.08 min; that for `NC(=O)c1ccc[n+](C2OC(COP(=O)(O)OP(=O)(O)OCC3OC(n4cnc5c(N)ncnc54)C(OP(=O)(O)O)C3O)C(O)C2O)c1` (centres undefined) [NADP], 14.4 min.
The result for `O=C(O)C=CC(=O)O` [Fumaric Acid] reads 12.4 min.
With `Nc1ncnc2c1ncn2C1OC(COP(=O)(O)O)C(O)C1O` (centres undefined) [AMP], the LC retention time was 10.1 min.
Consider `C=C(OP(=O)(O)O)C(=O)O` [PEP], for which the LC retention time is 14.6 min.
The result for `O=C(O)CCC(=O)C(=O)O` [2-Oxoglutaric acid] reads 12.7 min; that for `Nc1ncnc2c1ncn2C1OC(COP(=O)(O)OP(=O)(O)OP(=O)(O)O)C(O)C1O` (centres undefined) [ATP], 13.3 min.
As for `CC(C)(COP(=O)(O)OP(=O)(O)OCC1OC(n2cnc3c(N)ncnc32)C(O)C1OP(=O)(O)O)C(O)C(=O)NCCC(=O)NCCS` (centres undefined) [CoenzymeA], the figure is 11.5 min; as for `Nc1ncnc2c1ncn2C1OC(COP(=O)(O)OP(=O)(O)O)C(O)C1O` (centres undefined) [ADP], 11.9 min; as for `NC(CCC(=O)O)C(=O)O` (centres undefined) [Glutamic acid], 9.7 min.
The result for `O=P(O)(O)OCC(O)CO` (centres undefined) [Glycerol-3-phosphate] reads 10.8 min.
Consider `O=C(CO)COP(=O)(O)O` [Triose phosphate], for which the LC retention time is 11.8 min.
As for `CC(=O)SCCNC(=O)CCNC(=O)C(O)C(C)(C)COP(=O)(O)OP(=O)(O)OCC1OC(n2cnc3c(N)ncnc32)C(O)C1OP(=O)(O)O` (centres undefined) [Acetyl-CoA], the figure is 9.93 min; as for `NC(=O)c1ccc[n+](C2OC(COP(=O)(O)OP(=O)(O)OCC3OC(n4cnc5c(N)ncnc54)C(O)C3O)C(O)C2O)c1` (centres undefined) [NAD], 11.1 min.
As for `NC(CC(=O)O)C(=O)O` (centres undefined) [Aspartic Acid], the figure is 10.2 min.
Regarding `CC(=O)NC1C(OP(=O)(O)OP(=O)(O)OCC2OC(n3ccc(=O)[nH]c3=O)C(O)C2O)OC(CO)C(O)C1O` (centres undefined) [UDP-GlcNAc], the LC retention time was 12 min.
Consider `CC(O)C(=O)O` (centres undefined) [Lactic Acid], for which the LC retention time is 3.92 min.
The result for `Nc1ncnc2c1ncn2C1OC(CO)C(O)C1O` (centres undefined) [Adenosine] reads 4.79 min.
With `NC(CCC(=O)NC(CS)C(=O)NCC(=O)O)C(=O)O` (centres undefined) [GSH], the LC retention time was 10.2 min.
The result for `NC(=O)CCC(N)C(=O)O` (centres undefined) [Glutamine] reads 9.81 min; that for `O=C(O)CC(O)C(=O)O` (centres undefined) [Malic Acid], 11.9 min.
The result for `O=P(O)(O)OCC1OC(O)C(O)C(O)C1O` (centres undefined) [Glucose-6-phosphate] reads 13.9 min.
As for `NC(=O)C1=CN(C2OC(COP(=O)(O)OP(=O)(O)OCC3OC(n4cnc5c(N)ncnc54)C(OP(=O)(O)O)C3O)C(O)C2O)C=CC1` (centres undefined) [NADPH], the figure is 15.2 min.
